Experimental data published in ChEMBL document CHEMBL5303573, “Mapping human microbiome drug metabolism by gut bacteria and their genes” (Nature, 2019).

experiment: The drug is tested on Bacteroides cellulosilyticus strain: DSM14838 for biotransformation. The drug concentrations were measured before and after a 12-h incubation by liquid-chromatography-coupled mass spectrometry (LC–MS); conditions: 2 µM

SMILES	Bacterial Biotransformation
CN1CCN(C2=Nc3ccccc3Oc3ccc(Cl)cc32)CC1.O=C(O)CCC(=O)O [LOXAPINE SUCCINATE]	Compound NOT metabolized
O=c1[nH]c2ccccc2n1CCCN1CCC(n2c(=O)[nH]c3cc(Cl)ccc32)CC1 [DOMPERIDONE]	Compound NOT metabolized
N#Cc1ccc(C(c2ccc(C#N)cc2)n2cncn2)cc1 [LETROZOLE]	Compound NOT metabolized

experiment: The drug is tested on Clostridium sporogenes strain: ATCC15579 for biotransformation. The drug concentrations were measured before and after a 12-h incubation by liquid-chromatography-coupled mass spectrometry (LC–MS); conditions: 2 µM

SMILES	Bacterial Biotransformation
CN1CCN(C2=Nc3ccccc3Oc3ccc(Cl)cc32)CC1.O=C(O)CCC(=O)O [LOXAPINE SUCCINATE]	Compound NOT metabolized
O=c1[nH]c2ccccc2n1CCCN1CCC(n2c(=O)[nH]c3cc(Cl)ccc32)CC1 [DOMPERIDONE]	Compound NOT metabolized
N#Cc1ccc(C(c2ccc(C#N)cc2)n2cncn2)cc1 [LETROZOLE]	Compound NOT metabolized

experiment: The drug is tested on Providencia rettgeri strain: DSM1131 for biotransformation. The drug concentrations were measured before and after a 12-h incubation by liquid-chromatography-coupled mass spectrometry (LC–MS); format: ADME; parameters: dose 2 uM, timepoint 0 vs 12 hours; conditions: 2 µM

SMILES	Bacterial Biotransformation
CN1CCN(C2=Nc3ccccc3Oc3ccc(Cl)cc32)CC1.O=C(O)CCC(=O)O [LOXAPINE SUCCINATE]	Compound NOT metabolized
O=c1[nH]c2ccccc2n1CCCN1CCC(n2c(=O)[nH]c3cc(Cl)ccc32)CC1 [DOMPERIDONE]	Compound NOT metabolized
N#Cc1ccc(C(c2ccc(C#N)cc2)n2cncn2)cc1 [LETROZOLE]	Compound NOT metabolized

conditions: anaerostipes sp., 12 h, 2 µM
Description: The drug is tested on Anaerostipes sp. strain: fecal isolate for biotransformation. The drug concentrations were measured before and after a 12-h incubation by liquid-chromatography-coupled mass spectrometry (LC–MS)

SMILES	Bacterial Biotransformation
CN1CCN(C2=Nc3ccccc3Oc3ccc(Cl)cc32)CC1.O=C(O)CCC(=O)O [LOXAPINE SUCCINATE]	Compound NOT metabolized
O=c1[nH]c2ccccc2n1CCCN1CCC(n2c(=O)[nH]c3cc(Cl)ccc32)CC1 [DOMPERIDONE]	Compound NOT metabolized
N#Cc1ccc(C(c2ccc(C#N)cc2)n2cncn2)cc1 [LETROZOLE]	Compound NOT metabolized

experiment: The drug is tested on Bifidobacterium breve strain: DSM20213 for biotransformation. The drug concentrations were measured before and after a 12-h incubation by liquid-chromatography-coupled mass spectrometry (LC–MS); conditions: 2 µM

SMILES	Bacterial Biotransformation
CN1CCN(C2=Nc3ccccc3Oc3ccc(Cl)cc32)CC1.O=C(O)CCC(=O)O [LOXAPINE SUCCINATE]	Compound NOT metabolized
O=c1[nH]c2ccccc2n1CCCN1CCC(n2c(=O)[nH]c3cc(Cl)ccc32)CC1 [DOMPERIDONE]	Compound NOT metabolized
N#Cc1ccc(C(c2ccc(C#N)cc2)n2cncn2)cc1 [LETROZOLE]	Compound NOT metabolized

conditions: parabacteroides johnsonii, 12 h, 2 µM
Description: The drug is tested on Parabacteroides johnsonii strain: DSM18315 for biotransformation. The drug concentrations were measured before and after a 12-h incubation by liquid-chromatography-coupled mass spectrometry (LC–MS)

SMILES	Bacterial Biotransformation
CN1CCN(C2=Nc3ccccc3Oc3ccc(Cl)cc32)CC1.O=C(O)CCC(=O)O [LOXAPINE SUCCINATE]	Compound NOT metabolized
O=c1[nH]c2ccccc2n1CCCN1CCC(n2c(=O)[nH]c3cc(Cl)ccc32)CC1 [DOMPERIDONE]	Compound NOT metabolized
N#Cc1ccc(C(c2ccc(C#N)cc2)n2cncn2)cc1 [LETROZOLE]	Compound NOT metabolized

experiment: The drug is tested on Clostridium sp. strain: fecal isolate for biotransformation. The drug concentrations were measured before and after a 12-h incubation by liquid-chromatography-coupled mass spectrometry (LC–MS); conditions: 2 µM

SMILES	Bacterial Biotransformation
CN1CCN(C2=Nc3ccccc3Oc3ccc(Cl)cc32)CC1.O=C(O)CCC(=O)O [LOXAPINE SUCCINATE]	Compound NOT metabolized
O=c1[nH]c2ccccc2n1CCCN1CCC(n2c(=O)[nH]c3cc(Cl)ccc32)CC1 [DOMPERIDONE]	Compound NOT metabolized
N#Cc1ccc(C(c2ccc(C#N)cc2)n2cncn2)cc1 [LETROZOLE]	Compound NOT metabolized

conditions: bacteroides fragilis, 12 h, 2 µM
Description: The drug is tested on Bacteroides fragilis strain: 3397 (T10) for biotransformation. The drug concentrations were measured before and after a 12-h incubation by liquid-chromatography-coupled mass spectrometry (LC–MS)

SMILES	Bacterial Biotransformation
CN1CCN(C2=Nc3ccccc3Oc3ccc(Cl)cc32)CC1.O=C(O)CCC(=O)O [LOXAPINE SUCCINATE]	Compound NOT metabolized
O=c1[nH]c2ccccc2n1CCCN1CCC(n2c(=O)[nH]c3cc(Cl)ccc32)CC1 [DOMPERIDONE]	Compound NOT metabolized
N#Cc1ccc(C(c2ccc(C#N)cc2)n2cncn2)cc1 [LETROZOLE]	Compound NOT metabolized

conditions: bifidobacterium adolescentis, 12 h, 2 µM
Description: The drug is tested on Bifidobacterium adolescentis strain: ATCC 15703 for biotransformation. The drug concentrations were measured before and after a 12-h incubation by liquid-chromatography-coupled mass spectrometry (LC–MS)

SMILES	Bacterial Biotransformation
CN1CCN(C2=Nc3ccccc3Oc3ccc(Cl)cc32)CC1.O=C(O)CCC(=O)O [LOXAPINE SUCCINATE]	Compound NOT metabolized
O=c1[nH]c2ccccc2n1CCCN1CCC(n2c(=O)[nH]c3cc(Cl)ccc32)CC1 [DOMPERIDONE]	Compound NOT metabolized
N#Cc1ccc(C(c2ccc(C#N)cc2)n2cncn2)cc1 [LETROZOLE]	Compound NOT metabolized

experiment: The drug is tested on Enterococcus faecalis strain: V583 for biotransformation. The drug concentrations were measured before and after a 12-h incubation by liquid-chromatography-coupled mass spectrometry (LC–MS); conditions: 2 µM

SMILES	Bacterial Biotransformation
CN1CCN(C2=Nc3ccccc3Oc3ccc(Cl)cc32)CC1.O=C(O)CCC(=O)O [LOXAPINE SUCCINATE]	Compound NOT metabolized
O=c1[nH]c2ccccc2n1CCCN1CCC(n2c(=O)[nH]c3cc(Cl)ccc32)CC1 [DOMPERIDONE]	Compound NOT metabolized
N#Cc1ccc(C(c2ccc(C#N)cc2)n2cncn2)cc1 [LETROZOLE]	Compound NOT metabolized

conditions: bacteroides thetaiotaomicron, 12 h, 2 µM
Description: The drug is tested on Bacteroides thetaiotaomicron strain: VPI-5482 for biotransformation. The drug concentrations were measured before and after a 12-h incubation by liquid-chromatography-coupled mass spectrometry (LC–MS)

SMILES	Bacterial Biotransformation
CN1CCN(C2=Nc3ccccc3Oc3ccc(Cl)cc32)CC1.O=C(O)CCC(=O)O [LOXAPINE SUCCINATE]	Compound NOT metabolized
O=c1[nH]c2ccccc2n1CCCN1CCC(n2c(=O)[nH]c3cc(Cl)ccc32)CC1 [DOMPERIDONE]	Compound NOT metabolized
N#Cc1ccc(C(c2ccc(C#N)cc2)n2cncn2)cc1 [LETROZOLE]	Compound NOT metabolized

experiment: The drug is tested on Bacteroides caccae strain: ATCC43185 for biotransformation. The drug concentrations were measured before and after a 12-h incubation by liquid-chromatography-coupled mass spectrometry (LC–MS); conditions: 2 µM

SMILES	Bacterial Biotransformation
CN1CCN(C2=Nc3ccccc3Oc3ccc(Cl)cc32)CC1.O=C(O)CCC(=O)O [LOXAPINE SUCCINATE]	Compound NOT metabolized
O=c1[nH]c2ccccc2n1CCCN1CCC(n2c(=O)[nH]c3cc(Cl)ccc32)CC1 [DOMPERIDONE]	Compound NOT metabolized
N#Cc1ccc(C(c2ccc(C#N)cc2)n2cncn2)cc1 [LETROZOLE]	Compound NOT metabolized

conditions: segatella copri, 12 h, 2 µM
Description: The drug is tested on Prevotella copri strain: DSM18205 for biotransformation. The drug concentrations were measured before and after a 12-h incubation by liquid-chromatography-coupled mass spectrometry (LC–MS)

SMILES	Bacterial Biotransformation
CN1CCN(C2=Nc3ccccc3Oc3ccc(Cl)cc32)CC1.O=C(O)CCC(=O)O [LOXAPINE SUCCINATE]	Compound NOT metabolized
O=c1[nH]c2ccccc2n1CCCN1CCC(n2c(=O)[nH]c3cc(Cl)ccc32)CC1 [DOMPERIDONE]	Compound NOT metabolized

experiment: The drug is tested on Blautia hansenii strain: DSM20583 for biotransformation. The drug concentrations were measured before and after a 12-h incubation by liquid-chromatography-coupled mass spectrometry (LC–MS); conditions: 2 µM

SMILES	Bacterial Biotransformation
CN1CCN(C2=Nc3ccccc3Oc3ccc(Cl)cc32)CC1.O=C(O)CCC(=O)O [LOXAPINE SUCCINATE]	Compound NOT metabolized
O=c1[nH]c2ccccc2n1CCCN1CCC(n2c(=O)[nH]c3cc(Cl)ccc32)CC1 [DOMPERIDONE]	Compound NOT metabolized
N#Cc1ccc(C(c2ccc(C#N)cc2)n2cncn2)cc1 [LETROZOLE]	Compound NOT metabolized

experiment: The drug is tested on Odoribacter splanchnicus strain: fecal isolate for biotransformation. The drug concentrations were measured before and after a 12-h incubation by liquid-chromatography-coupled mass spectrometry (LC–MS); conditions: 2 µM

SMILES	Bacterial Biotransformation
CN1CCN(C2=Nc3ccccc3Oc3ccc(Cl)cc32)CC1.O=C(O)CCC(=O)O [LOXAPINE SUCCINATE]	Compound NOT metabolized
O=c1[nH]c2ccccc2n1CCCN1CCC(n2c(=O)[nH]c3cc(Cl)ccc32)CC1 [DOMPERIDONE]	Compound NOT metabolized
N#Cc1ccc(C(c2ccc(C#N)cc2)n2cncn2)cc1 [LETROZOLE]	Compound NOT metabolized

experiment: The drug is tested on Clostridium scindens strain: ATCC35704 for biotransformation. The drug concentrations were measured before and after a 12-h incubation by liquid-chromatography-coupled mass spectrometry (LC–MS); conditions: 2 µM

SMILES	Bacterial Biotransformation
N#Cc1ccc(C(c2ccc(C#N)cc2)n2cncn2)cc1 [LETROZOLE]	Compound NOT metabolized

experiment: The drug is tested on Escherichia coli strain: BW25113 for biotransformation. The drug concentrations were measured before and after a 12-h incubation by liquid-chromatography-coupled mass spectrometry (LC–MS); conditions: 2 µM

SMILES	Bacterial Biotransformation
CN1CCN(C2=Nc3ccccc3Oc3ccc(Cl)cc32)CC1.O=C(O)CCC(=O)O [LOXAPINE SUCCINATE]	Compound NOT metabolized
O=c1[nH]c2ccccc2n1CCCN1CCC(n2c(=O)[nH]c3cc(Cl)ccc32)CC1 [DOMPERIDONE]	Compound NOT metabolized
N#Cc1ccc(C(c2ccc(C#N)cc2)n2cncn2)cc1 [LETROZOLE]	Compound NOT metabolized

experiment: The drug is tested on Bacteroides vulgatus strain: ATCC8482 for biotransformation. The drug concentrations were measured before and after a 12-h incubation by liquid-chromatography-coupled mass spectrometry (LC–MS); conditions: phocaeicola vulgatus, 2 µM

SMILES	Bacterial Biotransformation
CN1CCN(C2=Nc3ccccc3Oc3ccc(Cl)cc32)CC1.O=C(O)CCC(=O)O [LOXAPINE SUCCINATE]	Compound NOT metabolized
O=c1[nH]c2ccccc2n1CCCN1CCC(n2c(=O)[nH]c3cc(Cl)ccc32)CC1 [DOMPERIDONE]	Compound NOT metabolized
N#Cc1ccc(C(c2ccc(C#N)cc2)n2cncn2)cc1 [LETROZOLE]	Compound NOT metabolized

conditions: parabacteroides distasonis, 12 h, 2 µM
Description: The drug is tested on Parabacteroides distasonis strain: ATCC8503 for biotransformation. The drug concentrations were measured before and after a 12-h incubation by liquid-chromatography-coupled mass spectrometry (LC–MS)

SMILES	Bacterial Biotransformation
CN1CCN(C2=Nc3ccccc3Oc3ccc(Cl)cc32)CC1.O=C(O)CCC(=O)O [LOXAPINE SUCCINATE]	Compound NOT metabolized
O=c1[nH]c2ccccc2n1CCCN1CCC(n2c(=O)[nH]c3cc(Cl)ccc32)CC1 [DOMPERIDONE]	Compound NOT metabolized
N#Cc1ccc(C(c2ccc(C#N)cc2)n2cncn2)cc1 [LETROZOLE]	Compound NOT metabolized

experiment: The drug is tested on Ruminococcus lactaris strain: ATCC29176 for biotransformation. The drug concentrations were measured before and after a 12-h incubation by liquid-chromatography-coupled mass spectrometry (LC–MS); conditions: 2 µM

SMILES	Bacterial Biotransformation
CN1CCN(C2=Nc3ccccc3Oc3ccc(Cl)cc32)CC1.O=C(O)CCC(=O)O [LOXAPINE SUCCINATE]	Compound NOT metabolized
O=c1[nH]c2ccccc2n1CCCN1CCC(n2c(=O)[nH]c3cc(Cl)ccc32)CC1 [DOMPERIDONE]	Compound NOT metabolized
N#Cc1ccc(C(c2ccc(C#N)cc2)n2cncn2)cc1 [LETROZOLE]	Compound NOT metabolized
